Test [1] deals with Yummer1.7 melanoma. Put plainly: Yummer1.7 melanoma syngeneic tumor model. Type of test: in vivo, mouse. An excerpt:
(§1) 7–9-wk-old C57BL/6J, B6.129S2-Ighm^tm1Cgn/J (002288), B6.129S2-Nr4a1^tm1Jmi/J (NR4A1^−/−, 006187), and NOD-SCID interleukin-2 receptor gamma null (NSG) mice were purchased from Jackson Laboratories. For all studies involving NR-V04 and celastrol, the compounds were formulated in 50% phosal PG, 45% miglyol 810N, and 5% polysorbate 80 and administered via i.p. injection.
For syngeneic tumor models, 5 × 10^5 cells MC38, Yumm1.7, and Yummer1.7, 1 × 10^5 cells of B16F10 were resuspended in PBS and implanted into 7–9-wk-old mice subcutaneously. For the tumor inhibition experiment, mice were treated with 1.8 mg/kg NR-V04 or 0.75 mg/kg celastrol by i.p. injection twice weekly. For the immune profile experiment, once tumors reached 0.5 cm in diameter, mice were treated with 1.8 mg/kg NR-V04 by i.p. injection twice weekly. […] Blood samples were taken from the submandibular (facial) vein before each treatment and 42 days later for hematological analysis, and body weight was measured twice per week up to day 42. […]
We administered 100 μg of anti-mouse CD8α antibody (Clone: 53-6.7; Bio X Cell) or rat IgG2a isotype control to each mouse every 4 days via i.p. injection. […] Toward the end of the experiment, we collected blood samples from mice in both treatment and control groups and assessed the efficiency of CD8^+ T cell depletion using flow cytometry analysis.

For test [2], the system named is Yumm1.7 tumors. Description: Yumm1.7 melanoma syngeneic tumor model. Type of test: in vivo, mouse. The following applies: Yumm1.7 (low immunogenicity), 1.8 mg/kg.
From the text: as §1
For syngeneic tumor models, 5 × 10^5 cells MC38, Yumm1.7, and Yummer1.7, 1 × 10^5 cells of B16F10 were resuspended in PBS and implanted into 7–9-wk-old mice subcutaneously. For the tumor inhibition experiment, mice were treated with 1.8 mg/kg NR-V04 or 0.75 mg/kg celastrol by i.p. injection twice weekly. For the immune profile experiment, once tumors reached 0.5 cm in diameter, mice were treated with 1.8 mg/kg NR-V04 by i.p. injection twice weekly. For the toxicity experiment, male and female non-tumor-bearing mice were treated with 2 mg/kg NR-V04 for two doses in the first week and 5 mg/kg for another two doses in the second week. Blood samples were taken from the submandibular (facial) vein before each treatment and 42 days later for hematological analysis, and body weight was measured twice per week up to day 42. Mice were euthanized in accordance with the IACUC protocol once the largest tumors reached 2 cm in diameter, and tissues were collected for further analysis.

Test [3] has as its system OT-1 CD8^+ Texh cells. Description: T cell exhaustion in vitro, mouse OT-1 CD8^+ T cells. Format: cell-based. The following applies: 500 nM, 48 h. Here is the method:
We conducted experiments involving the isolations and treatments of CD8^+ T cells from both OT-1 mice (C57BL/6-Tg(TcraTcrb)1100Mjb/J; Jackson Laboratories) and T cells from human PBMCs. CD8^+ T cells were isolated from OT-1 mice using the EasySep Mouse CD8 T Cell Isolation Kit, followed by daily treatment with 10 ng/ml ovalbumin (257–264) (S7951-1MG; Sigma-Aldrich) for specified durations. After 3 days of ovalbumin treatment, OT-1 CD8^+ T cells were activated, and after 7 days of treatment, they reached a state of exhaustion. Human T cells were isolated from PBMCs using the EasySep Human CD3 Positive Selection Kit II (17851; STEMCELL) and cultured with Dynabeads (Cell/Dynabeads: 1:1, A56992; Thermo Fisher Scientific) for 3 days to induce activation and for 7 days to induce exhaustion. Both mouse and human T cells received a treatment of 500 nM NR-V04 2 days prior to harvesting. To characterize the T cell subtypes, we employed specific flow cytometry antibodies and conducted flow cytometry analysis.
Mouse tumors were excised and ∼200 mg of tumor tissue was enzymatically and mechanically digested using the mouse Tumor Dissociation Kit (Miltenyi Biotec) to obtain a single-cell suspension. […] Flow cytometry was performed on a three laser Cytek Aurora Cytometer (Cytek Biosciences) and analyzed using FlowJo software (BD Biosciences). […]

On to `CC1=C(O)C(=O)C=C2C1=CC=C1[C@@]2(C)CC[C@@]2(C)[C@@H]3C[C@](C)(C(=O)NCCOCCOCCOCCOCC(=O)N[C@H](C(=O)N4C[C@H](O)C[C@H]4C(=O)N[C@@H](C)c4ccc(-c5scnc5C)cc4)C(C)(C)C)CC[C@]3(C)CC[C@]12C` [NR-V04], for which the “tumor response with CD8^+ T cell depletion” value in test [1] (Yummer1.7, anti-CD8 antibody 100 µg/mouse, NR-V04 from day 7) is reported as “desensitized tumors to NR-V04 treatment”. Also, the tumor growth result in test [1] (Yummer1.7 in WT mice, 1.8 mg/kg i.p. twice a week from day 7) is recorded as “effectively inhibited tumor growth”; in test [2] it was “no tumor inhibitory effect”. In addition, in test [3], the “CD8^+ Texh cells (PD1^+Tim3^+)” value is “significant reduction in CD8^+ Texh cells”.

Values taken from article PMC10857906, “PROTAC-mediated NR4A1 degradation as a novel strategy for cancer immunotherapy” (The Journal of Experimental Medicine, 2024).
